Test system: HCV genotype 1a replicon
Assay: HCV genotype 1a replicon assay (NS3 protease activity readout)
Format: cell-based, hepatitis C virus
Conditions: HCV genotype 1a replicon
How it was run: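 Genotype 1a subgenomic replicon cells (APC89, Huh7.5) were treated with compound dose-responses in G418-free medium, 0.5% DMSO final, for 48 or 72 hours at 37° C. Lysate NS3/4a protease activity measured with 15 μM FRET substrate, 20 min at 37° C (ex 340/em 509 nm); EC50 by 4-parameter fit.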

With COC(=O)N[C@H](C(=O)N1C[C@@H](C)C[C@H]1c1nc(-c2ccc(-c3ccc(C(=O)Nc4ccc(N5CCN(C(=O)C6CC6)C[C@H]5C)nc4)cc3OC(F)(F)F)cc2)c(Cl)[nH]1)C(C)C [Example 4-31] as the compound, how does the “Genotype 1a” value read?
The value was “C (C represents pEC50 between and 9 and about 10, (EC50 between 1 nM and 0.1 nM))”.

Which “Genotype 1a” value does the source give for COC(=O)N[C@H](C(=O)N1C[C@@H](C)C[C@H]1c1nc(-c2ccc(-c3ccc(C(=O)Nc4ccc(N5CCN(C(=O)C6CC6(Cl)Cl)C[C@H]5C)nc4)cc3OC(F)(F)F)cc2)c[nH]1)C(C)C (stereo partly shown) [Example 4-32] here?
The value was “C (C represents pEC50 between and 9 and about 10, (EC50 between 1 nM and 0.1 nM))”.

Which “Genotype 1a” value does the source give for COC(=O)N[C@H](C(=O)N1C[C@@H](C)C[C@H]1c1nc(-c2ccc(-c3ccc(C(=O)Nc4ccc(N5CCN(C(=O)N(C)C)C[C@H]5C)nc4)cc3OC(F)(F)F)cc2)c[nH]1)C(C)C [Example 4-33] here?
Its value is “C (C represents pEC50 between and 9 and about 10, (EC50 between 1 nM and 0.1 nM))”.

How did the “Genotype 1a” value turn out when CNC(=O)N1CCN(c2ccc(NC(=O)c3ccc(-c4ccc(-c5c[nH]c([C@@H]6C[C@H](C)CN6C(=O)[C@@H](NC(=O)OC)C(C)C)n5)cc4)c(OC(F)(F)F)c3)cn2)[C@H](C)C1 [Example 4-34] was run?
The value was “C (C represents pEC50 between and 9 and about 10, (EC50 between 1 nM and 0.1 nM))”.

COC(=O)N[C@H](C(=O)N1C[C@@H](C)C[C@H]1c1nc(-c2ccc(-c3ccc(C(=O)Nc4ccc(N5CCN(C(=O)C6CC6)C[C@H]5C)nc4)cc3OC(F)(F)F)cc2)c[nH]1)C(C)C [Example 4-35] was tested. Which “Genotype 1a” value did it give?
Its value is “C (C represents pEC50 between and 9 and about 10, (EC50 between 1 nM and 0.1 nM))”.

COC(=O)N[C@H](C(=O)N1C[C@@H](C)C[C@H]1c1nc(-c2ccc(-c3ccc(C(=O)Nc4ccc(N5CCN(C(=O)C(C)(C)C)C[C@H]5C)nc4)cc3OC(F)(F)F)cc2)c[nH]1)C(C)C [Example 4-36] was tested. Which “Genotype 1a” value did it give?
The value was “C (C represents pEC50 between and 9 and about 10, (EC50 between 1 nM and 0.1 nM))”.

COC(=O)N[C@H](C(=O)N1C[C@@H](C)C[C@H]1c1nc(-c2ccc(-c3ccc(C(=O)Nc4ccc(N5C[C@H](C)N(C(=O)[C@@]6(O)CC6(C)C)C[C@H]5C)nc4)cc3OC(F)(F)F)cc2)c[nH]1)C(C)C [Example 4-38] was tested. Which “Genotype 1a” value did it give?
The value was “C (C represents pEC50 between and 9 and about 10, (EC50 between 1 nM and 0.1 nM))”.

COC(=O)N[C@H](C(=O)N1C[C@@H](C)C[C@H]1c1nc(-c2ccc(-c3ccc(C(=O)Nc4ccc(N5C[C@H](C)N(C(=O)C(C)(C)NC(=O)C6CC6)C[C@H]5C)nc4)cc3OC(F)(F)F)cc2)c[nH]1)C(C)C [Example 4-39] was tested. Which “Genotype 1a” value did it give?
Its value is “C (C represents pEC50 between and 9 and about 10, (EC50 between 1 nM and 0.1 nM))”.

COC(=O)N[C@H](C(=O)N1C[C@@H](C)C[C@H]1c1nc(-c2ccc(-c3ccc(C(=O)Nc4ccc(N5C[C@H](C)N(C(=O)[C@@H](C)NC(=O)C6CC6)C[C@H]5C)nc4)cc3OC(F)(F)F)cc2)c[nH]1)C(C)C [Example 4-40] was tested. Which “Genotype 1a” value did it give?
Its value is “D (D represents pEC50>10 (EC50<0.1 nM))”.

With COC(=O)N[C@H](C(=O)N1C[C@@H](C)C[C@H]1c1nc(-c2ccc(-c3cc(F)c(C(=O)Nc4ccc(N5CCN(C(=O)C(C)(C)C)C[C@H]5C)nc4)cc3OC(F)(F)F)cc2)c[nH]1)C(C)C [Example 4-41] as the compound, how does the “Genotype 1a” value read?
Its value is “C (C represents pEC50 between and 9 and about 10, (EC50 between 1 nM and 0.1 nM))”.

COC(=O)N[C@H](C(=O)N1C[C@@H](C)C[C@H]1c1nc(-c2ccc(-c3cc(F)c(C(=O)Nc4ccc(N5CCN(C(=O)[C@H]6CC6(C)C)C[C@H]5C)nc4)cc3OC(F)(F)F)cc2)c[nH]1)C(C)C [Example 4-43] was tested. Which “Genotype 1a” value did it give?
The value was “C (C represents pEC50 between and 9 and about 10, (EC50 between 1 nM and 0.1 nM))”.

Which “Genotype 1a” value does the source give for COC(=O)N[C@H](C(=O)N1C[C@@H](C)C[C@H]1c1nc(-c2ccc(-c3cc(F)c(C(=O)Nc4ccc(N5CCN(C(=O)[C@H]6CC6(C)C)C[C@H]5C)nc4)cc3OC(F)(F)F)cc2)c(Cl)[nH]1)C(C)C [Example 4-44] here?
Its value is “D (D represents pEC50>10 (EC50<0.1 nM))”.

COC(=O)N[C@H](C(=O)N1C[C@@H](C)C[C@H]1c1nc(-c2ccc(-c3cc(F)c(C(=O)Nc4ccc(N5CCN(C(=O)C(C)(C)C)C[C@H]5C)nc4)cc3OC(F)(F)F)cc2)c(Cl)[nH]1)C(C)C [Example 4-45] was tested. Which “Genotype 1a” value did it give?
The value was “C (C represents pEC50 between and 9 and about 10, (EC50 between 1 nM and 0.1 nM))”.
